This note sets out measurements from patent US20140135310A1, “SULPHONAMIDE DERIVATIVES OF ALICYCLIC AMINES FOR THE TREATMENT OF CENTRAL NERVOUS SYSTEM DISEASES” (Adamed Sp. z o.o., priority 2011, published 2014).

Assay [1] addresses T1, 5-HT6 receptor (Homo sapiens, UniProt P50406).
T1 construct: purchased PerkinElmer
The experiment in a line: Radioligand binding assay, serotoninergic 5-HT6 receptors.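 Also: test compound at 1 µM.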 As to conditions: binding assay result in %, Table 5a. The method in brief:
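Values are Ki from Cheng–Prusoff, taking IC50 from Hill nonlinear regression of competition curves and KD from a Scatchard plot. Specific binding was total minus binding with excess unlabelled ligand. Radioligand displacement was detected by scintillation counting, and data were also reported as percent of control specific binding.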

Assay [2] has as its target dopaminergic receptors D2 (Homo sapiens, UniProt P14416). The experiment in a line: Radioligand binding assay, dopaminergic D2 receptors. As to conditions: binding assay, test compound 1×10^−6 M. In a few lines: (§1)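 Scintillation read-out. Specific = total − nonspecific (excess cold ligand). Data as % of control specific binding / % inhibition; IC50 by Hill fit; Ki = IC50/(1+L/KD), KD from Scatchard plot.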

In assay [3] the target is T2, serotonin transporter (SERT) (Homo sapiens, UniProt P31645).
T2 construct: expressed in transfected cells; host or cells: CHO cells
T2 sequence (P31645 whole entry): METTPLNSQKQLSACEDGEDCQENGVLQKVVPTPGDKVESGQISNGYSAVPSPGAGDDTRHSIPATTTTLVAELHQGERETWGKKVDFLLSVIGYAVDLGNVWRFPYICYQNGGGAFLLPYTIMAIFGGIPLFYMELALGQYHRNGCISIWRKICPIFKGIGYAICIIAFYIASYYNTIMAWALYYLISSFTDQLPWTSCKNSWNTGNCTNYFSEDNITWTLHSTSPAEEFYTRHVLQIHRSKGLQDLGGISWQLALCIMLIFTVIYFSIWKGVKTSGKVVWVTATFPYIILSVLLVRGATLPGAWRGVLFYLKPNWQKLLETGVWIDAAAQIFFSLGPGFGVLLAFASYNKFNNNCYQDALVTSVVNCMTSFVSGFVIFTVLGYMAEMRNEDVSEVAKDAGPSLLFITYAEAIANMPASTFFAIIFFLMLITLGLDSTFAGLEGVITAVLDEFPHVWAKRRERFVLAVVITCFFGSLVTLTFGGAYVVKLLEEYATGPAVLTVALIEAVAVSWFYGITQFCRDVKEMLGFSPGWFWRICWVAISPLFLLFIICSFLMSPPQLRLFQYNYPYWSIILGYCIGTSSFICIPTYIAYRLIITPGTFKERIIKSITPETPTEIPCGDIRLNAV
Briefly: Radioligand binding assay, serotonin transporter (SERT). As to conditions: binding assay, test compound 1×10^−6 M. In a few lines: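 Values are derived from competition curves fitted by the Hill equation to give IC50, then converted to Ki by Cheng-Prusoff with radioligand Kd from Scatchard analysis. Specific binding equals total minus non-specific (excess cold ligand), counted by scintillation, and is also expressed as percent inhibition of control.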

Assay [4] concerns the target T3, 5-HT1A receptor (rat hippocampus) (Rattus norvegicus, UniProt P19327).
T3 construct: hippocampus; from tissue; host or cells: rat hippocampus
T3 sequence (P19327 1-422): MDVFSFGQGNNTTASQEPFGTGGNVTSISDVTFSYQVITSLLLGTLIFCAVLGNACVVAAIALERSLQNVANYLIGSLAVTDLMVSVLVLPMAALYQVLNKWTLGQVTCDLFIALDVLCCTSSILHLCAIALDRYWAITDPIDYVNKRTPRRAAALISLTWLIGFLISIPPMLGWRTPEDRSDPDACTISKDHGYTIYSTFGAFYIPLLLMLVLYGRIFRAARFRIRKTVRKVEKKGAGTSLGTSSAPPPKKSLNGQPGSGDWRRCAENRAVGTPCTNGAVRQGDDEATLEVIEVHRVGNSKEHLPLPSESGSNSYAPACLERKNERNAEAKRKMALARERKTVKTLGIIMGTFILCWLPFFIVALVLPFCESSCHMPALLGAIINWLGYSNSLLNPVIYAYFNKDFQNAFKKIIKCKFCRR
Briefly: Radioligand binding assay, serotoninergic 5-HT1A receptors.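 Also: test compound at 1 µM.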 As to conditions: binding assay result in %, Table 5a.

Assay [5] concerns the target T4, 5-HT7 receptor (Homo sapiens, UniProt P34969).
T4 construct: purchased PerkinElmer
Briefly: Radioligand binding assay, serotoninergic 5-HT7 receptors.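 Also: test compound at 1 µM.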 As to conditions: binding assay result in %, Table 5a. In a few lines:
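Ki values used the Cheng–Prusoff equation, with KD from Scatchard analysis, applied to IC50 from Hill fits of human 5-HT7 radioligand competition curves. Bound radioligand was counted by scintillation, and excess unlabelled ligand set the non-specific binding.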

Assay [6] has as its system α1 adrenergic receptors (rat cerebral cortex). Briefly: Radioligand binding assay, adrenergic α1 receptors. As to conditions: test compound 1×10^−6 M. The method in brief: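 Values derive from radioligand displacement, with non-specific binding defined by excess cold ligand and detection by scintillation. Hill-fit IC50s were converted to Ki via Cheng-Prusoff using Scatchard-derived Kd; percent inhibition of control specific binding also reported.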

In assay [7] the target is dopaminergic receptors D3 (Homo sapiens, UniProt P35462). The experiment in a line: Radioligand binding assay, dopaminergic D3 receptors. As to conditions: test compound 1×10^−6 M. The method in brief:
as §1

In assay [8] the target is T5, 5-HT2A receptor (Homo sapiens, UniProt P28223).
T5 construct: purchased PerkinElmer
T5 sequence (P28223 whole entry): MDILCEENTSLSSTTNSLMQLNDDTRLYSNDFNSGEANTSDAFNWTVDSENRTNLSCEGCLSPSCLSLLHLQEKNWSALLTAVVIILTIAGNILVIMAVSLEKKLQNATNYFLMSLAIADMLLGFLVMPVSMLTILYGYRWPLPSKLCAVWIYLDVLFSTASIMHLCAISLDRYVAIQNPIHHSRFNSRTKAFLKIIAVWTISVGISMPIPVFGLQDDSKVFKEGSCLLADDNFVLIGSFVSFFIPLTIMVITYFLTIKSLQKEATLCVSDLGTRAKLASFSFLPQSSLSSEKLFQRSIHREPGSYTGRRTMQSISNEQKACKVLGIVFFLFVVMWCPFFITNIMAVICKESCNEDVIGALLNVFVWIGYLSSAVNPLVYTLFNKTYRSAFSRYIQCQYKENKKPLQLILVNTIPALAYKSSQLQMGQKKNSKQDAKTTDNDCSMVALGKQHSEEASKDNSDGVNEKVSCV
The experiment in a line: Radioligand binding assay, serotoninergic 5-HT2A receptors. As to conditions: binding assay result in %, Table 5a. In a few lines:
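Competition curves from scintillation-counted specific binding (total minus binding with excess unlabelled ligand) were Hill-fitted to give IC50, converted to Ki via Cheng-Prusoff using Scatchard-derived Kd.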

Broadly, the inhibition is the change of the read-out against control, counted positive when it falls.

Sequence of dopaminergic receptors D3 (P35462 whole entry): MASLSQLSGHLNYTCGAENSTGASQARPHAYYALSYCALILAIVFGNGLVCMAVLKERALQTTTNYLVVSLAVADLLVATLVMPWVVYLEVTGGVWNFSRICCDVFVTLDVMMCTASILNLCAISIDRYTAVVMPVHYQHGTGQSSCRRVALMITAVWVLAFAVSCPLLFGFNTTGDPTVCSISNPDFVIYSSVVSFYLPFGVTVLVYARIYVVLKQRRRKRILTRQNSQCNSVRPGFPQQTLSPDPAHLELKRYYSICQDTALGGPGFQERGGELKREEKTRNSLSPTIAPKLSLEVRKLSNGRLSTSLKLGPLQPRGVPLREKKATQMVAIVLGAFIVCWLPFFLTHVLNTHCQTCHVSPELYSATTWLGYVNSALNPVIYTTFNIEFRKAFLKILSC
T1 sequence (P50406 whole entry): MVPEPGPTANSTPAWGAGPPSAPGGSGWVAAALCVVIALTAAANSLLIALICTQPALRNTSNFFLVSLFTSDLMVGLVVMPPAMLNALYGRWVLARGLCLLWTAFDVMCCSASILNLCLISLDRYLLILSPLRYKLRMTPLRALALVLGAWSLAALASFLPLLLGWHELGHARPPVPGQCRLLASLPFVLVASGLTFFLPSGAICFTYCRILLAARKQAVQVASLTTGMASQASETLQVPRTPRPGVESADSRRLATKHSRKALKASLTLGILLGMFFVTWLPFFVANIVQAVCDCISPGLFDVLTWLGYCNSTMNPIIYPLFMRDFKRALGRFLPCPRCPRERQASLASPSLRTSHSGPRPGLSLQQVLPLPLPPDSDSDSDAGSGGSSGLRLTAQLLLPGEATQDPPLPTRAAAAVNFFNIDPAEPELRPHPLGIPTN
T4 sequence (P34969 whole entry): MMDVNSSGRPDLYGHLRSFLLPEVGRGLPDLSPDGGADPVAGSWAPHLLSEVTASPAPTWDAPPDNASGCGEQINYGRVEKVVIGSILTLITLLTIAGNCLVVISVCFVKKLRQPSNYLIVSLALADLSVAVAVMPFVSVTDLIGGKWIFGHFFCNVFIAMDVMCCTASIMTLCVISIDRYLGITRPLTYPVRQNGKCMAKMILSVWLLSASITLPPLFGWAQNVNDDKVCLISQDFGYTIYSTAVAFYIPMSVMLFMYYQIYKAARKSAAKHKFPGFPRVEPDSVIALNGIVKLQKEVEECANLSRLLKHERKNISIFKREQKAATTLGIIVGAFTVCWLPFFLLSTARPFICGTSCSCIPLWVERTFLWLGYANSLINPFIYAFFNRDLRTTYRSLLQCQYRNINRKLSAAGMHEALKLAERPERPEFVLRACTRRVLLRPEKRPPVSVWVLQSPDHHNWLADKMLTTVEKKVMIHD
Sequence of dopaminergic receptors D2 (P14416 whole entry): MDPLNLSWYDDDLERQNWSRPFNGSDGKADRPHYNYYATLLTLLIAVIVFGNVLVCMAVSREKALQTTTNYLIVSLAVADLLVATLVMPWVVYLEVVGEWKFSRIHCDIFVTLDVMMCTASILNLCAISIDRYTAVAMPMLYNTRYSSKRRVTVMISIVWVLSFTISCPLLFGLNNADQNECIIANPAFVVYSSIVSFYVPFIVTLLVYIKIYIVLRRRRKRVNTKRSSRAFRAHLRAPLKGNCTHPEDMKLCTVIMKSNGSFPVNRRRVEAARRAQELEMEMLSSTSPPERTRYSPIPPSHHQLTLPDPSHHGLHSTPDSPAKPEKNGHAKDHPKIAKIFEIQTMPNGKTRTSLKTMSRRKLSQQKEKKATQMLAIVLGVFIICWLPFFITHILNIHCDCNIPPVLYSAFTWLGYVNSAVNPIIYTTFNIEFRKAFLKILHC

Regarding `Cc1c(S(=O)(=O)NC2CCN(CCCc3noc4cc(F)ccc34)CC2)sc2ccc(Cl)cc12` [Compound 326, 5-Chloro-N-[1-[3-(6-fluoro-1,2-benzoxazol-3-yl)propyl]-4-piperidyl]-3-methyl-benzothiophene-2-sulphonamide], the inhibition at 1 µM in assay [1] is 83%; in assay [2], 86%; in assay [3], 10%; in assay [4], -1%; in assay [5], 91%; in assay [7], 61%. Also, the inhibition at 1 µM in assay [8] turned out to be 97%. The “α1 [%]” value in assay [6] is recorded as 70%.
As to `O=S(=O)(NC1CCN(CCCc2noc3cc(F)ccc23)CC1)c1ccc(-c2ccccc2)cc1` [Compound 327, N-[1-[3-(6-Fluoro-1,2-benzoxazol-3-yl)propyl]-4-piperidyl]-4-phenylbenzenesulphonamide], the inhibition at 1 µM in assay [1] was 68%; in assay [2], 79%; in assay [3], 33%; in assay [4], 20%; in assay [5], 86%; in assay [7], 56%. Besides, in assay [8], the inhibition at 1 µM stood at 94%. Also, the “α1 [%]” value in assay [6] turned out to be 81%.
Take “N-[1-[3-(6-Fluoro-1,2-benzoxazol-3-yl)propyl]pyrrolidin-3-yl]-1,3-benzothiazole-4-sulphonamide [Compound 31]”: in assay [1], the “5-HT6 [%]” value amounted to 76%. Also, the “D2 [%]” value in assay [2] is 87%. Besides, the “SERT [%]” value in assay [3] is 36%. Further, in assay [4], the “5-HT1A [%]” value came out at 58%. Further, the “5-HT7 [%]” value in assay [5] came out at 89%. Also, the “α1 [%]” value in assay [6] is recorded as 100%. Moreover, in assay [7], the “D3 [%]” value was determined as 27%. For the same molecule, the “5-HT2A [%]” value in assay [8] is given as 84%.
For the molecule “N-[1-[3-(6-Fluoro-1,2-benzoxazol-3-yl)propyl]pyrrolidin-3-yl]benzene-sulphonamide [Compound 6]”, the “5-HT6 [%]” value in assay [1] was 44%. The “D2 [%]” value in assay [2] is recorded as 70%. The “SERT [%]” value in assay [3] is reported as 18%. For the same molecule, the “5-HT1A [%]” value in assay [4] stood at 14%. Moreover, in assay [5], the “5-HT7 [%]” value came to 83%. For the same molecule, the “α1 [%]” value in assay [6] amounted to 98%. Further, in assay [7], the “D3 [%]” value came to 8%. In addition, the “5-HT2A [%]” value in assay [8] came out at 77%.
